# According to the OPERA property sets (Mansouri et al. 2018):
row,Compound,logP
1,c1ccc2c(c1)OCCOCCOCCOc1ccccc1OCCOCCOCCO2,2.11
2,COCCOCCOc1cccc(OCCOCCOC)c1,0.86
3,c1ccc2c(c1)OCCOCCOCCOCCOCCO2,0.58
4,c1ccc2c(c1)OCCOCCOCCOCCOCCOCCOCCOCCOCCO2,0.03
5,c1ccc2c(c1)OCCOCCOCCOCCOCCOCCOCCOc1ccccc1OCCO2,1.82
6,c1ccc2c(c1)OCCOCCOCCOCCOCCOCCOCCO2,0.45
7,COCCOCCOc1ccc(OCCOCCOC)cc1,0.76
8,c1ccc2c(c1)OCCOCCOCCOCCOCCOCCOc1ccccc1OCCO2,1.63
9,c1ccc2c(c1)OCCOCCOCCOCCOCCOCCOCCOCCOCCOCCO2,-0.09
10,c1ccc2c(c1)OCCOCCOCCOCCOCCOCCOCCOc1ccccc1OCCOCCOCCOCCOCCOCCOCCO2,0.52
11,COCCOCCOc1ccccc1OCCOCCOC,0.76
12,c1ccc2c(c1)OCCOCCOCCOCCOCCOCCO2,0.57

# The remaining lines, values ahead:
row,logP,Compound
1,0.91,c1ccc2c(c1)OCCOCCOCCOCCO2
2,2.2,c1ccc2c(c1)OCCOCCOc1ccccc1OCCOCCO2
3,1.8,c1ccc2c(c1)OCCOCCOCCOCCOc1ccccc1OCCOCCOCCOCCO2
4,1.45,c1ccc2c(c1)OCCOCCOCCOCCOCCOCCOc1ccccc1OCCOCCOCCO2
5,0.38,COCCOCCOCCOc1ccccc1OCCOCCOCCOC
